{"source": "patent US8337903B2", "about": "“Antitumoral agents with a benzophenanthridine structure and formulations containing them” (Indena S.p.A., priority 2008, dated 2012)", "key": {"[1]": {"tested_on": "oropharynx, head and neck tumors, melanoma and cervical tumors", "experiment": "treatment of oropharynx, head and neck tumors, melanoma and cervical tumors", "type": "in vivo", "conditions": "oral and topical administration; compared with the unsalified alkaloid", "excerpt": "The product most suitable for oral and topical administration is the salt of sanguinarine with luteic acid."}, "colon stem cells": {"tested_on": "colon stem cells", "experiment": "in vitro inhibiting activity towards colon stem cells", "type": "cell-based", "conditions": "concentration of 200 ng/ml", "excerpt": "(§1) Its behaviour towards other oncological stem cells is identical. These alkaloids can consequently be considered new-generation antitumoral agents, which are able to treat human tumors effectively. For tumors of the colon, liver, pancreas and cervix the most appropriate form is the salt with luteic acid dispersed in a suitable vehicle, whereas for the treatment of skin tumors such as melanoma, the salt with a phosphatidic acid can advantageously be administered topically directly to the area affected by the tumor."}, "melanoma stem cells": {"tested_on": "melanoma stem cells", "experiment": "in vitro inhibiting activity towards melanoma stem cells", "type": "cell-based", "conditions": "concentration of 200 ng/ml", "excerpt": "as §1"}}}
{"substance": "luteic acid sanguinarine salt [salt of sanguinarine with luteic acid]", "values": [{"measurement": "effectiveness in the treatment of tumors", "setting": "[1]", "result": "particularly effective"}, {"measurement": "inhibiting activity towards colon stem cells", "setting": "colon stem cells", "result": "potent inhibiting activity"}, {"measurement": "inhibiting activity towards melanoma stem cells", "setting": "melanoma stem cells", "result": "potent inhibiting activity"}]}
